In assay [1] the test system is ompR riboswitch (c-di-GMP-II, ompR 5′ UTR). Put plainly: Single-round transcription termination assay. The format is biochemical, C. difficile. The conditions noted are these: WT ompR construct, c-di-GMP 50 μM. How it is done:
Single round transcription assays were conducted using a method (FIG. 7) adapted as described previously (data not shown) with the following modifications. The elongation mixture contained 50 μM UTP, and 150 μM each of ATP, GTP and CTP. Heparin was added at 0.1 mg/mL at initiation of elongation. For the reactions containing the second messenger, c-di-GMP was added to a final concentration of 50 μM.
A template DNA harboring the 5′ UTR of the ompR gene of C. difficile and its native promoter was prepared by PCR (see Table 4). The predicted intrinsic transcription termination site is 40 nucleotides shorter than the terminus of the template DNA. The ompR riboswitch is predicted to be an ‘ON’ switch based on its architecture. Therefore the full length transcript was expected to undergo decreased termination in the presence of c-di-GMP. Mutant templates M2 and M3 were constructed by PCR and confirmed by sequencing (see Table 4). A template DNA for production of a simulated intrinsic transcription termination product was generated by PCR and was used as a marker during PAGE analysis of transcription products.
Further evidence of aptamer-controlled transcription termination was observed by conducting single-round transcription assays in vitro using another C. difficile c-di-GMP-II construct from the ompR mRNA (FIG. 2C). […]

For assay [2], the system named is 864 Cd Tandem RNA (c-di-GMP-II aptamer and group I ribozyme). Nature of the assay: Self-splicing assays of the tandem riboswitch-ribozyme. The format is biochemical, Clostridium difficile 630. The conditions noted are these: for Rate constant, product 3′E* (alternative GTP attack product) / Rate constant, product 5′E-3′E (spliced exons): Internally 32P-labeled RNA; for Rate constant, product GTP1 (GTP attack at 5′ SS) / Rate constant, product GTP2 (alternative GTP attack site): Unlabeled RNA, [α-32P]GTP. How it is done: Initial ribozyme self-splicing reaction conditions were based on those previously reported for use with a group I ribozyme from Tetrahymena thermophile and consisted of incubations at 30° C. in the presence of 50 mM HEPES (pH 7.5 at 23° C.), 100 mM (NH4)2SO4, 5 mM MgCl2, and 0.1 mM GTP. At concentrations of MgCl2 above 10 mM and temperatures at 37° C. or above, the difference between the ligated exons and alternate GTP attack site products became less pronounced. A range of ligand concentrations were tested for both GTP (5 μM to 1 mM) and cyclic di-GMP ([…] to 100 μM) to determine the optimal amounts for splicing activity, based on probable biological relevance and degree of allosteric control.
Splicing assays for wild-type and mutant RNAs were carried out for 30 minutes (unless otherwise noted) under the conditions described above, with the addition of 50 μM GTP and/or 10 μM c-di-GMP when stated. Final RNA concentrations were lower than 1 μM for all reactions. Reaction mixtures containing unlabeled RNA were supplemented with 1 μCi/μL [α-^32P]GTP. Products were separated by denaturing 6% PAGE. Gels were dried and products were subsequently imaged using a PhosphorImager (Molecular Dynamics).
Aliquots from splicing reactions conducted with either 5′ or internally ^32P-labeled 864 Cd Tandem RNAs were removed at various incubation times and the reactions were terminated by the addition of stop buffer (see below). Similarly, time course experiments were conducted with unlabeled 864 Cd Tandem RNAs supplemented with ˜50 nCi/μL [α-^32P]GTP. Reactions were initiated by combining a solution containing RNA only (˜100 pM 5′ ^32P-labeled RNA, ˜1 μM internally ^32P-labeled RNA, or ˜10 nM unlabeled RNA) with a solution containing the buffer and any ligands to yield a final concentration of contents as described above. The two mixtures were briefly pre-heated at 30° C. and the reaction was initiated by the transfer of buffer/ligand solution to the RNA solution. The zero time point was removed prior to initiation of the reaction and immediately placed into an equivalent volume of stop buffer (8 M urea, 20% w/v sucrose, 0.1% SDS, 0.05% bromophenol blue, 0.05% xylene cyanol FF, 0.09 M Tris base, 0.09 M borate, 1 mM EDTA [pH 8.0]). Likewise, subsequent aliquots were removed at each time point and quenched by placement in stop buffer. Reaction products were separated as described above and dried gels were imaged using a PhosphorImager (Molecular Dynamics).
For precursor RNAs that were initially ^32P-labeled, rate constants for product formation were established by determining the yield of specific products relative to the unprocessed or misprocessed RNAs. First, an average background for each lane was calculated and subtracted from intensities of individual bands or lanes. Second, product band intensities were compared to the total intensity of their corresponding lane, which corrected for any differences due to sample loading. Third, the band intensity at time zero was subtracted from the corresponding bands of all other time points. Yields of products from assays conducted with internally ^32P-labeled RNAs were also corrected for the number of uridine nucleotides in the product RNA versus the total number of uridine nucleotides in the precursor RNA (252 nucleotides). This correction allows for direct comparison of the number of molecules present in each product band. The total fraction of RNA processed at 120 minutes is ˜40%. […] This extent of RNA misfolding, particularly in the absense of possible protein factors, is also typical of other large functional RNAs. Thus, at 120 minutes, approximately 80% of the total reactable RNA has undergone processing. The fractions of RNA processed for the internally ^32P-labeled RNA was adjusted to reflect this value of 80% at 120 minutes.
For splicing assays conducted using unlabeled precursor RNAs, determination of rate constants were conducted differently. […]

The mark [3] stands for this setting: GTP + and c-di-GMP +, first 15 minutes.

The structures appear in SMILES notation. Values joined by “and” are separate entries in the source; they are usually repeats but may differ in a detail not shown here. Equal entries are not always repeated.

On to `Nc1nc2c(ncn2[C@@H]2O[C@@H]3COP(=O)(O)O[C@H]4[C@@H](O)[C@H](n5cnc6c(=O)[nH]c(N)nc65)O[C@@H]4COP(=O)(O)O[C@H]3[C@H]2O)c(=O)[nH]1` [c-di-GMP, cyclic di-GMP], for which the “production of full-length RNA transcript (transcription termination control)” value in assay [1] is on record as “robust production of full-length RNA transcript only when c-di-GMP is added”. In assay [2] (5′ 32P-labeled 864 Cd Tandem RNA, 120 minutes, read-out: S50, concentration of c-di-GMP at which 5′E-3′E is half-maximally processed), the EC50 is ~30 nM and 30 nM. The “ratio of alternative attack product (3′E*) to spliced exons (5′E-3′E)” value in assay [2] (120 minutes, c-di-GMP present) was “near equal amounts”. In addition, in assay [2] (GTP and c-di-GMP versus only GTP, unlabeled RNA, first 15 minutes), the “increase in initial rate constant for GTP attack at the 5′ SS” value was ~13 fold. Further, in assay [2] (GTP + and c-di-GMP +), the “Rate constant, product 3′E* (alternative GTP attack product)” value is 0.018 min⁻¹ and the “Rate constant, product 5′E-3′E (spliced exons)” value is 1.3×10^−2 min^−1. In addition, in assay [2] (setting [3]), the “Rate constant, product GTP1 (GTP attack at 5′ SS)” value is 0.023 min⁻¹ and the “Rate constant, product GTP2 (alternative GTP attack site)” value is 0.023 min⁻¹. Besides, in assay [2] (presence versus absence of c-di-GMP, 120 minutes), the “increase in the production of spliced exons” value was ~8 fold. Also, the “increase in the initial rate constant for spliced product formation” value in assay [2] (presence versus absence of c-di-GMP, internally labeled RNA) came to 12 fold.

With `Nc1nc2c(ncn2[C@@H]2O[C@H](COP(=O)(O)OP(=O)(O)OP(=O)(O)O)[C@@H](O)[C@H]2O)c(=O)[nH]1` [GTP], in assay [2] (120 minutes, absence of c-di-GMP (GTP only)), the “ratio of alternative attack product (3′E*) to spliced exons (5′E-3′E)” value is reported as “more than 20 fold”. Moreover, in assay [2] (GTP + and c-di-GMP −), the “Rate constant, product 3′E* (alternative GTP attack product)” value worked out at 0.024 min⁻¹; the “Rate constant, product 5′E-3′E (spliced exons)” value was 1.1×10^−3 min^−1; the “Rate constant, product GTP1 (GTP attack at 5′ SS)” value turned out to be 0.0018 min⁻¹; the “Rate constant, product GTP2 (alternative GTP attack site)” value turned out to be 0.027 min⁻¹.
